Test results as given in US10610515B2, “Composition including indoprofen and use thereof” (Samsung Electronics Co., Ltd., priority 2015, dated 2020).

How the values were obtained:
mouse = conditions: cited from earlier work
C2C12 myoblasts [1] = assay: Immunoblot of PGC-1α, differentiation markers and mitochondrial protein in indoprofen-treated myoblasts; type: cell-based
Method: The effect of indoprofen on the differentiation of C2C12 myoblasts into muscle cells was analyzed. Dulbecco's Modified Eagle Medium (DMEM) supplemented with 15% fetal bovine serum was used as a growth medium for the culture of C2C12 myoblasts, and DMEM supplemented with 2% horse serum was used as a differentiation medium for differentiation into muscle cells. To induce differentiation of C2C12 myoblasts into muscle cells, 10 μM or 100 μM indoprofen dissolved in DMSO was added to the experimental groups, and DMSO alone was added to the control group. The cells were cultured for 48 hours to induce differentiation, and then a RIPA buffer (50 mM Tris-HCl, pH 7.5, 150 mM NaCl, 1% Triton X100, 0.1% SDS, 2 mM EDTA, 0.5% sodium deoxycholate, Proteinase Inhibitor) was added to the harvested cells to allow lysis for 30 minutes, followed by centrifugation at 13,000 rpm for 30 minutes. The amount of protein in the cell lysis sample was quantified and an equal amount of protein was subjected to 7% or 15% SDS-PAGE. The protein was transferred onto a PVDF membrane, and then incubated in a blocking buffer containing 5% skim milk for 1 hour. Primary antibodies specific to individual proteins, diluted in 5% BSA, are reacted with the membrane at 4° C. for 12 hours, and then the membrane was washed with a wash buffer for 5 minutes three times. Secondary antibodies were diluted with the blocking buffer and allowed to react with the membrane at room temperature for 1 hour. Thereafter, the membrane was washed with the wash buffer for 5 minutes three times, and then exposed to X-ray film using an ECL reagent (Roche) to confirm protein expression levels.

C57BL/6 female mice [2] = assay: Immunohistochemistry of 2a/2b type muscle fiber in extensor digitorum longus muscles of indoprofen-treated mice; type: in vivo, mouse; conditions: oral, 2 weeks
Method: 10 week-old C57BL/6 female mice were bred at a temperature of 22±2° C., humidity of 55±5%, and a light-dark cycle of 12:12 hours. Mice were orally administered 1.5 mg/kg of indoprofen in 100 μl of PBS twice a day. A control group was orally administered with 100 μl of PBS twice a day. The mice were allowed free access to drinking water. Skeletal muscles were separated from the mice fed with indoprofen for 2 weeks, and subjected to immunoblot analysis. To examine distribution of 2a type muscle fiber and 2b type muscle fiber, extensor digitorum longus muscles of mice administered with indoprofen for 2 weeks were subjected to immunohistochemistry. 2a type muscle fiber is an oxidative muscle fiber type, and there are two types: aerobic, that is, oxygen-dependent energy source and anaerobic, that is, oxygen-independent energy source. 2b type muscle fiber is a glycolytic muscle fiber type, and includes only anaerobic energy source. Frozen sections stored in a deep freezer of −80° C. were washed with 1×PBS twice, and fixed with 4% paraformaldehyde at room temperature for 15 minutes, and then washed with 1×PBS twice. The tissue and a permeabilization buffer (0.2% Triton-X/PBS) were reacted at room temperature for 30 minutes, and washed with 1×PBS twice. […] After sealing, a fluorescence microscope (Nikon, body: Ti-u, camera: DS-RI1, program: NIS-elements BR 3.1) was used for analysis.

C57BL/6 female mice [3] = assay: Immunoblotting of tibialis anterior muscles of mice administered with indoprofen; type: in vivo, mouse; conditions: 1.5 mg/kg orally twice a day, 2 weeks, 10 week-old mice, vs PBS control (FIG. 3A)
Method: (§1) 10 week-old C57BL/6 female mice were bred at a temperature of 22±2° C., humidity of 55±5%, and a light-dark cycle of 12:12 hours. Mice were orally administered 1.5 mg/kg of indoprofen in 100 μl of PBS twice a day. A control group was orally administered with 100 μl of PBS twice a day. The mice were allowed free access to drinking water. Skeletal muscles were separated from the mice fed with indoprofen for 2 weeks, and subjected to immunoblot analysis.

C57BL/6 female mice [4] = assay: SDH and NADPH staining of extensor digitorum longus muscle of indoprofen-administered mice; type: in vivo, mouse; conditions: oral, 2 weeks, 10 week-old mice
Method: 10 week-old C57BL/6 female mice were bred at a temperature of 22±2° C., humidity of 55±5%, and a light-dark cycle of 12:12 hours. Mice were orally administered 1.5 mg/kg of indoprofen in 100 μl of PBS twice a day. A control group was orally administered with 100 μl of PBS twice a day. The mice were allowed free access to drinking water. Skeletal muscles were separated from the mice fed with indoprofen for 2 weeks, and subjected to immunoblot analysis. Staining of succinic dehydrogenase (SDH) and NADPH in the extensor digitorum longus muscle of a mouse administered with indoprofen for 2 weeks was performed. This staining method is a method of analyzing mitochondrial activity by measuring activities of SDH and NADPH which are enzymes involved in the electron transport chain of mitochondria. Staining degree of SDH and NADPH represents a content of oxidative muscle fiber. Immediately after separation, extensor digitorum longus muscles were fixed in OCT compound and frozen using liquid nitrogen, and then sectioned to a thickness of 7 μm with a cryo-cut freezing microtome. After SDH staining, the frozen tissue sections were reacted in 0.2 M phosphate buffer (pH 7.4) containing SDH at 37° C. for 10 minutes, washed with distilled water, and then sealed, followed by observation. […]

human PGC-1α promoter = assay: PGC-1α promoter luciferase reporter screening in C2C12-PGC-1α reporter cell line; type: cell-based, mouse; conditions: 10 μM, 48 hours, C2C12-PGC-1α reporter cells, vs DMSO control
Method: To screen a compound activating PGC-1α gene expression in C2C12 myoblast cells, a PGC-1α reporter-expressing C2C12 cell line (hereinafter, referred to as ‘PGC-1α reporter cell line’ or ‘C2C12-PGC-1α cell line) was established. A vector expressing luciferase and dscGFP (destabilized Green Fluorescent Protein) under a human PGC-1α promoter having a length of 1 kb was prepared, and this vector was inserted into lentivirus to transfect C2C12 cells. To select a cell line that genetically stably expressed the vector, fluorescence emitted from green fluorescent protein (GFP) included in the vector was monitored. 5 μg/ml of puromycin, a selection marker for the vector, was added to a cell culture medium, and a cell line expressing PGC-1α reporter was selected. […] The expression level is measured by luminescence after addition of a luciferase substrate, thereby determining activation or inhibition of PGC-1α transcription by the compound.
The C2C12-PGC-1α reporter cell line prepared in Section 1 was used to screen a PGC-1α expression regulator from 2320 compounds provided by Korea Chemical Bank. […] 48 hours later, luminescence by luciferase was measured. […] Then, luminescence is measured. The measured values were normalized to each well and plate, and a value measured in a well treated with a solvent of the compound, DMSO, is used as a control group to express the value as a relative ratio.

C57BL/6 female mice [5] = assay: Observation of lower limb muscles and heart of mice administered with indoprofen; type: in vivo, mouse; conditions: 1.5 mg/kg orally twice a day
Method: as §1, with “analysis. To evaluate functional consequence of PGC-1α increased by indoprofen treatment of skeletal muscle, lower limb muscles and organs of mice fed with indoprofen for 2 weeks were separated and analyzed.” for “analysis.”

25-month-old female mice [6] = assay: SDH and NADPH staining of extensor digitorum longus muscle of indoprofen-administered old mice; type: in vivo, mouse; conditions: old (25-month-old) mice, oral in corn oil, 4 weeks
Method: Immediately after separation, extensor digitorum longus muscles were fixed in OCT compound and frozen using liquid nitrogen, and then sectioned to a thickness of 7 μm with a cryo-cut freezing microtome. After SDH staining, the frozen tissue sections were reacted in 0.2 M phosphate buffer (pH 7.4) containing SDH at 37° C. for 10 minutes, washed with distilled water, and then sealed, followed by observation. For NADPH staining, the frozen tissue sections were reacted in 3.5 mM phosphate buffer (pH 7.4) containing 0.9 mM NADH, and 1.5 mM nitro blue tetrazolium at 37° C. for 30 minutes, washed with distilled water, and then sealed, followed by observation.
25-month-old female mice (weighing 30 g) were orally administered with indoprofen mixed with corn oil as an experimental group or corn oil only as a control group for 4 weeks. […] Staining of SDH and NADPH in extensor digitorum longus muscles of the old mice orally administered with indoprofen for 4 weeks was performed in the same manner as in 4 of Example 3.

C2C12 myoblasts [7] = assay: Differentiation of indoprofen-treated myoblasts (MHC antibody fluorescence staining, DAPI); type: cell-based; conditions: 10 μM or 100 μM, differentiation 3 days, vs DMSO control (FIG. 2)
Method: C2C12 myoblasts were treated with 10 μM or 100 μM indoprofen and allowed to differentiate for 3 days. A control group was treated with DMSO alone. Fluorescence staining of C2C12 myotubes was performed using MHC antibody. The number of nuclei within one myotube was counted by DAPI staining. C2C12 cells were differentiated in DMED supplemented with 2% horse serum for 72 hours. The cells were washed with 1×PBS, and then fixed in 4% paraformaldehyde at room temperature for 15 minutes, followed by washing with 1×PBS three times. The cells were reacted with a permeabilizing buffer supplemented with 0.2% Triton-X for 10 minutes, and then washed with 1×PBS three times, followed by blocking using 5% fetal bovine serum at room temperature for 1 hour. A primary antibody, anti-MHC, was diluted with 5% goat serum at a ratio of 1:500 and allowed to react at 4° C. for 12 hours, followed by washing with 1×PBS three times. A secondary antibody, anti-mouse IgG-HRP 594 (Invitrogen) was diluted with 5% goat serum at a ratio of 1:500 and allowed to react at 4° C. for 1 hour, followed by washing with 1×PBS three times. DAPI is diluted with 1×PBS at a ratio of 1:10000 and allowed to react for 1 minute, followed by washing with 1×PBS and fluorescence microscopy.

25-month-old female mice [8] = assay: Weighing lower limb muscles of old mice administered with indoprofen; type: in vivo, mouse; conditions: old (25-month-old) mice, fed 4 weeks (FIG. 4C)
From the text: To analyze changes in the muscle weight of old mouse by administration of indoprofen, lower limb muscles were separated from 25-month-old female mice (weighing 30 g) fed with indoprofen for 4 weeks.

[9] = 10 μM or 100 μM, 48 hours differentiation, Western blot, vs DMSO control (FIG. 1)

CC(=O)Oc1ccccc1C(=O)O [aspirin]
ID50 (mouse; for reference): 250 mg/kg

CC(C(=O)O)c1ccc(N2Cc3ccccc3C2=O)cc1 (stereo not shown) [indoprofen, 2-[4-(1-oxo-1,3-dihydro-2H-isoindol-2-yl)phenyl]propionic acid]
expression of PGC-1α (C2C12 myoblasts [1]; [9]): greatly increased | expression of mitochondrial protein cytochrome C (C2C12 myoblasts [1]; [9]): greatly increased | expression of muscle differentiation marker MHC (C2C12 myoblasts [1]; [9]): greatly increased | expression of muscle differentiation marker myogenin (C2C12 myoblasts [1]; [9]): greatly increased | expression of myoglobin (C2C12 myoblasts [1]; [9]): greatly increased | concentration of optimal activity (C2C12 myoblasts [1]; C2C12 myoblasts, protein expression (FIG. 1)): 100 µM | number of oxidative 2a type muscle fiber in extensor digitorum longus muscle (C57BL/6 female mice [2]; anti-Myh2a antibody, vs non-treated control (FIG. 3C)): increased | number of glycolytic 2b type muscle fiber in extensor digitorum longus muscle (C57BL/6 female mice [2]; anti-Myh2b antibody, vs non-treated control (FIG. 3D)): decreased | expression of PGC-1α in tibialis anterior muscle (C57BL/6 female mice [3]): increased | expression of myoglobin in tibialis anterior muscle (C57BL/6 female mice [3]): increased | lethal dose (LD)-50 for 50% mouse mortality (mouse; mouse): 700 mg per mouse body weight (kg) | percentage of muscle fiber having increased SDH activity in extensor digitorum longus muscle (C57BL/6 female mice [4]; vs control group (FIG. 3E)): increased | percentage of muscle fiber having increased NADPH activity in extensor digitorum longus muscle (C57BL/6 female mice [4]; vs control group (FIG. 3F)): increased | PGC-1α promoter activity (luciferase luminescence, relative ratio to DMSO control) (human PGC-1α promoter): greatly increased | heart size (C57BL/6 female mice [5]; 2 weeks (FIG. 3B (C))): no change | appearance of quadriceps muscle and gastrocnemius muscle (white vs red muscle) (C57BL/6 female mice [5]; 2 weeks, vs control group (FIG. 3B)): converted to red muscles | percentage of muscle fiber having increased SDH activity in extensor digitorum longus muscle (25-month-old female mice [6]; vs corn oil control (FIG. 4A)): increased | percentage of muscle fiber having increased NADPH activity in extensor digitorum longus muscle (25-month-old female mice [6]; vs corn oil control (FIG. 4B)): increased | myotube formation and fusion of myoblasts (C2C12 myoblasts [7]): increased | percentage of the nuclei labeled with MHC antibody (C2C12 myoblasts [7]): significantly increased | weight of lower limb muscle (Sol, Gas, EDL, TA) (25-month-old female mice [8]): increases
